Measurements as given in US10864211B2, “Hydroxy isoxazole compounds useful as GPR120 agonists” (Merck Sharp & Dohme Corp., priority 2016, dated 2020).
Counter-ions that a name gives are not always drawn. Blank lines part the entries; values can stand above or below the compound they belong to.

Target: T1, human GPR120 (Homo sapiens, UniProt Q5NUL3)
T1 construct: expressed in transfected cells; host or cells: CHO-K1
T1 sequence (Q5NUL3 1-361): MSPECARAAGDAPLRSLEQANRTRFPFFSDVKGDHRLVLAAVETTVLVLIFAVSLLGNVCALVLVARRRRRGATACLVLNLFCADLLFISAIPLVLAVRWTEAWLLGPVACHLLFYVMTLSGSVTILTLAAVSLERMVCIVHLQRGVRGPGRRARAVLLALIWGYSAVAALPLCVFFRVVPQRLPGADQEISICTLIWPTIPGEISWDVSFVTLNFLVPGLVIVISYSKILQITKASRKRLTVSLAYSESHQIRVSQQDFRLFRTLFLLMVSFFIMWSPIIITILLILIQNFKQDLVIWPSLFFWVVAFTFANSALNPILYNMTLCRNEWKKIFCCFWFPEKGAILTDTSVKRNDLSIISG
Experiment: Human GPR120 IP1 assay (inositol phosphate turnover)
Type: cell-based
Conditions: IP1 accumulation in CHO-K1 cells stably expressing the short form of human GPR120
Source text: The binding of small molecule agonists to the G-protein-coupled receptor GPR120 activates phospholipase C, and leads to the generation of inositol 1,4,5-trisphosphate (InsP3 or IP3). IP3 is subsequently de-phosphorylated to IP1, which accumulates in cells and is stable in the presence of lithium chloride.
In the present method, agonist-induced activation of the human and rat GPR120 receptor was monitored by measuring the accumulation of IP1 in CHO-K1 cells that were stably expressing the short form of human GPR120 (Accession #NM_001195755) or HEK293 cells stably expressing rat GPR120 (Accession #NM_001047088). Following agonist addition, GPR120 activation and subsequent accumulation of IP1 was measured using a homogeneous Time Resolved Fluorescence-based ELISA commercially available from CisBio (IP-one ELISA Kit). The IP-One ELISA was a competitive immunoassay which uses IP1 labeled with […] and a terbium cryptate-labeled anti-IP1 monoclonal antibody. […] The signal loss was then back calculated to IP1 concentration using an IP1 standard curve. Determination of IP1 concentration was a direct measure of GPR120 activation and was used to determine compound potency (EC50).
Human GPR120 stable cell-lines were generated in CHO cells. The expression plasmids were transfected using lipofectamine (Life Technologies) following manufacturer's instructions. Stable cell-lines were generated following drug selection and single cell cloning. Rat GPR120 stable cell-lines were generated in HEK cells using the Jump-In™ cell engineering platform (Life Technologies) following manufacturer's instructions. Stable cell-lines were generated following drug selection and single cell cloning.
The assay was performed in 384-well format. CHO cells stably expressing human GPR120 were plated at 20,000 cells per well in growth medium (DMEM/F12, 10% fetal calf serum). HEK293 cells stably expressing rat GPR120 were plated at […] per well in growth medium (DMEM, 10% fetal calf serum). Cell plates were then incubated 16 hours at 37 degrees in a 5% CO2 incubator. Measurement of Inositol Phosphate Turnover (IP1) was performed using the CisBio IP-One kit (Part number 62IPAPEB). After the 16 hour incubation, the growth media was removed by centrifugation using the BlueWasher (AusWasher GUI Ver. v1.0.1.8) Protocol #21-“Light Dry” and 10 μl of stimulation buffer (prepared as described in the kit) was added to each well. In a separate plate, compounds were diluted in DMSO (200-fold over the final concentration in the assay well) and 50 nl was acoustically transferred to the appropriate well in the assay cell plate. The plates were then incubated for 60 minutes at 37 degrees in a 5% CO2 incubator. 10 μl of detection buffer (also prepared as described in the IP-One kit) was added to each well and the plates were incubated at room temperature for 60 minutes in the dark. The plates were then read in a Perkin ElmerEnVision or equivalent reader able to measure FRET. Fluorescent ratio of emission at 665 and 620 nm was then converted to the IP1 concentration by back calculating from an IP1 standard curve prepared at the time of the assay. The data was normalized to % activity using a reference compound, and the EC50 values were determined using a standard 4-parameter fit.

SMILES: CCc1ccc([C@H]2C[C@@H](Oc3ccc(-c4cc(O)no4)cn3)C2)cc1 [Example 14, 5-(6-{[cis-3-(4-ethylphenyl)-cyclobutyl]oxy}pyridin-3-yl)isoxazol-3-ol]
EC50: 19 nM

SMILES: Oc1cc(-c2cnc(O[C@H]3C[C@@H](c4ncc(C(F)(F)F)s4)C3)cn2)on1 [Example 6, 5-[5-({cis-3-[5-(trifluoromethyl)-1,3-thiazol-2-yl]cyclobutyl}oxy)pyrazin-2-yl]isoxazol-3-ol]
EC50: 129 nM

SMILES: Oc1cc(-c2cnc(O[C@H]3C[C@@H](c4ccc(-c5cnco5)cc4)C3)cn2)on1 [Example 16, 5-[5-({cis-3-[4-(1,3-oxazol-5-yl)phenyl]cyclobutyl}oxy)pyrazin-2-yl]isoxazol-3-ol]
EC50: 64 nM

SMILES: Oc1cc(-c2ccc(O[C@H]3C[C@@H](c4ncc(C(F)(F)F)cc4F)C3)nc2)on1 [Example 9, sodium 5-[6-({cis-3-[3-fluoro-5-(trifluoromethyl)pyridin-2-yl]-cyclobutyl}oxy)pyridin-3-yl]isoxazol-3-olate]
EC50: 23 nM

SMILES: Oc1cc(-c2cnc(O[C@H]3C[C@@H](c4cccc(-c5cnco5)c4)C3)cn2)on1 [Example 19, ammonium 5-[5-({cis-3-[3-(1,3-oxazol-5-yl)phenyl]-cyclobutyl}oxy)pyrazin-2-yl]isoxazol-3-olate]
EC50: 75 nM

SMILES: Oc1cc(-c2cnc(O[C@H]3C[C@@H](c4ccc(C(F)(F)F)cc4)C3)cn2)on1 [Example 55, 5-[5-({cis-3-[4-(trifluoromethyl)phenyl]cyclobutyl}oxy)pyrazin-2-yl]isoxazol-3-ol]
EC50: 11 nM

SMILES: Oc1cc(-c2cnc(O[C@H]3C[C@@H](c4ccc(C(F)F)c(F)c4)C3)cn2)on1 [Example 1, 5-[5-({cis-3-[4-(difluoromethyl)-3-fluorophenyl]cyclobutyl}oxy)pyrazin-2-yl]isoxazol-3-ol]
EC50: 8.7 nM

SMILES: Oc1cc(-c2cnc(O[C@H]3C[C@@H](c4ccc(OC5CC5)cc4)C3)cn2)on1 [Example 4, sodium 5-[5-({cis-3-[4-(cyclopropyloxy)phenyl]cyclobutyl}-oxy)pyrazin-2-yl]isoxazol-3-olate]
EC50: 83 nM

SMILES: Oc1cc(-c2cnc(O[C@H]3C[C@@H](c4ccc(OC(F)(F)F)cc4)C3)cn2)on1 [Example 56, 5-[5-({cis-3-[4-(trifluoromethoxy)phenyl]cyclobutyl}oxy)pyrazin-2-yl]isoxazol-3-ol]
EC50: 49 nM

SMILES: Oc1cc(-c2cnc(O[C@H]3C[C@@H](c4ccc5c(c4)OCCO5)C3)cn2)on1 [Example 42, ammonium 5-(5-{[cis-3-(2,3-dihydro-1,4-benzodioxin-6-yl)cyclobutyl]oxy}pyrazin-2-yl)isoxazol-3-olate]
EC50: 85 nM

SMILES: Oc1cc(-c2cnc(O[C@H]3C[C@@H](c4nc(C(F)(F)F)cs4)C3)cn2)on1 [Example 5, 5-[5-({cis-3-[4-(trifluoromethyl)-1,3-thiazol-2-yl]cyclobutyl}oxy)pyrazin-2-yl]isoxazol-3-ol]
EC50: 82 nM

SMILES: Oc1cc(-c2ccc(O[C@H]3C[C@@H](c4ccnc(C(F)(F)F)c4)C3)nc2)on1 [Example 21, 5-(3-hydroxyisoxazol-5-yl)-2-({cis-3-[2-(trifluoromethyl)-pyridin-4-yl]cyclobutyl}-oxy)pyridinium chloride]
EC50: 254 nM

SMILES: Oc1cc(-c2ccc(OC3CC(c4ccc(C5CC5)cc4)C3)nc2)on1 (stereo not shown) [Example 15, 5-(6-{[3-(4-cyclo-propyl-phenyl)cyclobutyl]oxy}pyridin-3-yl)isoxazol-3-ol]
EC50: 41 nM

SMILES: Oc1cc(-c2cnc(O[C@H]3C[C@H](c4ccc(C(F)F)c(F)c4)C3)cn2)on1 [Example 2, 5-[5-({trans-3-[4-(difluoromethyl)-3-fluorophenyl]cyclobutyl}oxy)pyrazin-2-yl]isoxazol-3-ol]
EC50: 178 nM

SMILES: Oc1cc(-c2ccc(O[C@H]3C[C@H](c4ccnc(OC5CC5)c4)C3)nc2)on1 [Example 31, sodium 5-[6-({trans-3-[2-(cyclopropyloxy)pyridin-4-yl]cyclobutyl}oxy)pyridin-3-yl]isoxazol-3-olate]
EC50: 62 nM

SMILES: Oc1cc(-c2cnc(O[C@H]3C[C@@H](c4ccc(C5CC(F)(F)C5)cc4)C3)cn2)on1 [Example 30, 5-[5-({cis-3-[4-(3,3-difluorocyclobutyl)phenyl]cyclobutyl}oxy)pyrazin-2-yl)isoxazol-3-ol]
EC50: 155 nM

The remaining lines, values ahead:

EC50: 52 nM
SMILES: Oc1cc(-c2cnc(O[C@H]3C[C@@H](Oc4cccc(OC(F)(F)F)c4)C3)cn2)on1 [Example 68, 5-[5-({cis-3-[3-(trifluoromethoxy)phenoxy]cyclobutyl}oxy)pyrazin-2-yl]isoxazol-3-ol]

EC50: 41 nM
SMILES: Oc1cc(-c2cnc(OC3CC(c4ccc5c(c4)OC(F)(F)O5)C3)nc2)on1 (stereo not shown) [Example 113, sodium 5-(2-{[3-(2,2-difluoro-1,3-benzodioxol-5-yl)cyclobutyl]oxy}pyrimidin-5-yl)isoxazol-3-olate]

EC50: 11 nM
SMILES: Oc1cc(-c2ccc(O[C@H]3C[C@@H](OCc4cccc(C(F)(F)F)c4)C3)nc2)on1 [Example 74, 5-(3-hydroxyisoxazol-5-yl)-2-[(cis-3-{[3-(trifluoromethyl)benzyl]oxy}cyclobutyl)oxy]pyridinium trifluoroacetate]

EC50: 149 nM
SMILES: Cc1nc(C(F)(F)F)c(CO[C@H]2C[C@@H](Oc3ccc(-c4cc(O)no4)cn3)C2)s1 [Example 75, 5-(3-hydroxyisoxazol-5-yl)-2-[(cis-3-{[2-methyl-4-(trifluoromethyl)-1,3-thiazol-5-yl]methoxy}cyclobutyl)oxy] pyridinium trifluoroacetate]

EC50: 538 nM
SMILES: CC(C)Oc1cc([C@]2(F)C[C@H](Oc3cnc(-c4cc(O)no4)cn3)C2)ccn1 [Example 101, sodium 5-[5-({trans-3-fluoro-3-[2-(propan-2-yloxy)pyridin-4-yl]cyclobutyl}oxy)pyrazin-2-yl]isoxazol-3-olate]

EC50: 59 nM
SMILES: Oc1cc(-c2ccc(OC3CCC(c4cccc(OC(F)(F)F)c4)C3)nc2)on1 (single isomer, unassigned) [Example 117, 5-(3-hydroxyisoxazol-5-yl)-2-({3-[3-(trifluoromethoxy)phenyl]cyclopentyl}oxy)pyridinium trifluoroacetate]

EC50: 1990 nM
SMILES: Oc1cc(-c2ccc(OCC3CC(Oc4ccccc4)C3)nc2)on1 (stereo not shown) [Example 64, ammonium 5-{6-[(3-phenoxycyclobutyl)methoxy]pyridin-3-yl}isoxazol-3-olate]

EC50: 37 nM
SMILES: Oc1cc(-c2cnc(O[C@H]3C[C@@H](Oc4cccc(C(F)(F)F)c4)C3)cn2)on1 [Example 66, ammonium 5-[5-({cis-3-[3-(trifluoromethyl)phenoxy]cyclobutyl}oxy)pyrazin-2-yl]isoxazol-3-olate]

EC50: 11 nM
SMILES: Oc1cc(-c2cnc(O[C@H]3C[C@@H](c4ccc(Cl)cc4)C3)nc2)on1 [Example 109, 5-(2-{[cis-3-(4-chlorophenyl)cyclobutyl]oxy}pyrimidin-5-yl)isoxazol-3-ol]

EC50: 8 nM
SMILES: Oc1cc(-c2cnc(O[C@H]3C[C@@H](c4ccc(C(F)F)cc4)C3)cn2)on1 [Example 59, 5-[5-({cis-3-[4-(difluoromethyl)phenyl]cyclobutyl}oxy)pyrazin-2-yl]isoxazol-3-ol]

EC50: 47 nM
SMILES: Oc1cc(-c2cnc(O[C@H]3C[C@@H](Oc4ccc(C(F)(F)F)cc4)C3)cn2)on1 [Example 67, ammonium 5-[5-({cis-3-[4-(trifluoromethyl)phenoxy]cyclobutyl}oxy)pyrazin-2-yl]isoxazol-3-olate]

EC50: 15 nM
SMILES: CCOc1cc([C@]2(F)C[C@H](Oc3ccc(-c4cc(O)no4)cn3)C2)ccn1 [Example 98, Sodium 5-(6-{[trans-3-(2-ethoxypyridin-4-yl)-3-fluorocyclobutyl]oxy}pyridin-3-yl)isoxazol-3-olate]
